PMC6429262, “Design and Synthesis of Novel Anti-Proliferative Emodin Derivatives and Studies on their Cell Cycle Arrest, Apoptosis Pathway and Migration” (Molecules, 2019)

Columns and labels:
HepG2 cells [1] = test: CellTiter-Glo Luminescent Cell Viability Assay, HepG2; type: cell-based, human; settings: for IC50: 48 h, mean of three independent experiments
HepG2 cells [2] = test: Apoptosis analysis, annexin V-FITC/PI flow cytometry; type: cell-based, human; settings: for Apoptosis percentage, Early apoptosis / Apoptosis percentage, Late apoptosis / Apoptosis percentage, Overall apoptosis: mean ± SD of three experiments; for percentage of apoptotic cells: Figure 3A
Method: In order to verify whether compound 7a is able to induce apoptosis in HepG2 cells, we utilized FITC-Annexin V/PI staining and estimated the percentage of apoptotic cells by flow cytometry. We noted a concentration-dependent increase in the percentage of apoptotic cells when the cells were treated with compound 7a for 48 h at concentrations 2.5, 5, and 10 μM. […] Apoptosis was discriminated with the annexin V-FITC/PI test. Cells were seeded at 2 × 10^5/well in 10% FBS-DMEM into 6-well plates and treated with compounds 7a for 48 h. The cells were washed twice with cold phosphate buffered saline (PBS) and then resuspend in 1× Binding Buffer (0.1M Hepes/NaOH (pH 7.4), 1.4M NaCl, 25 mM CaCl2)) at a concentration of 1 × 10^5 cells/mL. 100 μL of the solution (1 × 10^4 cells) was transferred to a 5 mL culture tube, and 5 μL of FITC Annexin V (BD, Pharmingen, Franklin Lakes, NJ, USA) and 5 μL PI were added to each tube. The cells were gently resuspended by vortexing, and then were incubated for 30 min at RT (25 °C) in the dark. After incubation, 200 μL PBS was added to each tube. The analysis was performed with the system software (CellQuest; BD Biosciences, Franklin Lakes, NJ, USA). Analysis is as follows: lower left quadrant, viable cells (Annexin V−/PI−); lower right quadrant, early apoptotic cells (Annexin V+/PI−); upper right quadrant, late apoptotic cells (annexin V+/PI+); upper left quadrant, necrotic cells (annexin V−/PI+). The percentage of cells positive for PI and Annexin V-FITC was reported inside the quadrants.

HepG2 cells [3] = test: Wound healing assay (cell migration); type: cell-based; settings: Homo sapiens, 48 h, read-out: Inhibition (%) of migration (cell inhibitory rate)
Method: To evaluate the effect of compound 7a on cancer migration, a wound healing assay was conducted to determine whether compound 7a could prevent HepG2 cell migration. After culturing HepG2 cells for 48 h in the presence and absence of compound 7a at 0, 0.25, 0.5, and 1 μM, a pipette tip was streaked through the cell culture, resulting in a cell deficient space. The territory recovered by the HepG2 cells was used to observe the migration inhibition capability of compound 7a.
HepG2 cells were grown in DMEM medium containing growth factors at a cell density of 1 × 10^5 cells/mL for 24 h. A disposable […] plastic pipette tip was used to scratch the monolayer of cells in a streaking motion. Compounds were added to the streaked cell culture at the indicated concentrations. The streaked cells were then cultured in serum-free medium for an additional 48 h and photographed. To quantify the experimental results, the % cell inhibitory rate was calculated by the equation: cell inhibitory rate (%) = (1 − Ddrug/Dcontrol) × 100%, where Ddrug is the mean distance of cell migration in drug group and Dcontrol is the mean distance of cell migration in control group. Pictures of the initial wounded monolayers were compared with the corresponding pictures of cells at the end of the incubation, and data were presented as mean ± SD from three independent experiments.

**Q.** `Cc1cc(O)c2c(c1)C(=O)c1cc(OCCCOC(=O)[C@@H](C)N)cc(O)c1C2=O.O=C(O)C(F)(F)F` [Compound 7a, (R)-1-(3-(4,5-Dihydroxy-7-methyl-9,10-dioxo-9,10-dihydroanthracen-2-yloxy)propoxy)-1-oxopropan-2-aminium 2,2,2-trifluoroacetate] was tested. Which IC50 (HepG2 cells [1]; HepG2 cells) did it give?
**A.** 6.47 ± 0.21 µM

**Q.** What about the “enhancement of anti-proliferative activity compared to emodin” value (HepG2 cells [1]; HepG2 cells, IC50 ratio to parent compound emodin) of the same molecule?
**A.** 8.8 fold

**Q.** What about the IC50 (HepG2 cells [1]; Homo sapiens, HepG2, 48 h, HepG2 cells) of the same molecule?
**A.** 4.95 ± 0.14 µM

**Q.** And the “Selectivity Index HepG2” value (HepG2 cells [1]; IC50 on normal cells (L02)/IC50 on cancer cells (HepG2))?
**A.** 2.82

**Q.** What about the “Apoptosis percentage, Early apoptosis” value (HepG2 cells [2]; HepG2, 2.5 μM) of the same molecule?
**A.** 2.91 ± 0.45%

**Q.** What about the “Apoptosis percentage, Late apoptosis” value (HepG2 cells [2]; HepG2, 2.5 μM) of the same molecule?
**A.** 3.69 ± 0.48%

**Q.** What about the “Apoptosis percentage, Overall apoptosis” value (HepG2 cells [2]; HepG2, 2.5 μM) of the same molecule?
**A.** 6.59 ± 0.93%

**Q.** What about the “percentage of apoptotic cells” value (HepG2 cells [2]; HepG2, 5 μM, 48 h) of the same molecule?
**A.** 22.2%

**Q.** What about the “Apoptosis percentage, Early apoptosis” value (HepG2 cells [2]; HepG2, 5 μM) of the same molecule?
**A.** 15.93 ± 0.76%

**Q.** What about the “Apoptosis percentage, Late apoptosis” value (HepG2 cells [2]; HepG2, 5 μM) of the same molecule?
**A.** 7.51 ± 0.68%

**Q.** What about the “Apoptosis percentage, Overall apoptosis” value (HepG2 cells [2]; HepG2, 5 μM) of the same molecule?
**A.** 23.450 ± 1.07%

**Q.** And the “percentage of apoptotic cells” value (HepG2 cells [2]; HepG2, 10 μM, 48 h)?
**A.** 50.7%

**Q.** What about the “Apoptosis percentage, Early apoptosis” value (HepG2 cells [2]; HepG2, 10 μM) of the same molecule?
**A.** 37.73 ± 0.97%

**Q.** And the “Apoptosis percentage, Late apoptosis” value (HepG2 cells [2]; HepG2, 10 μM)?
**A.** 14.63 ± 1.17%

**Q.** What about the “Apoptosis percentage, Overall apoptosis” value (HepG2 cells [2]; HepG2, 10 μM) of the same molecule?
**A.** 52.00 ± 1.41%

**Q.** What about the viability at 2.5 µM (HepG2 cells [2]; Homo sapiens, HepG2, 2.5 μM, 48 h, representative plot, read-out: Q4 (Annexin V−/PI−, viable cells)) of the same molecule?
**A.** 93.3%

**Q.** What about the viability at 5 µM (HepG2 cells [2]; Homo sapiens, HepG2, 5.0 μM, 48 h, representative plot, read-out: Q4 (Annexin V−/PI−, viable cells)) of the same molecule?
**A.** 74.2%

**Q.** What about the viability at 10 µM (HepG2 cells [2]; Homo sapiens, HepG2, 10 μM, 48 h, representative plot, read-out: Q4 (Annexin V−/PI−, viable cells)) of the same molecule?
**A.** 46.9%

**Q.** And the inhibition at 0.25 µM (HepG2 cells [3]; HepG2, 0.25 μM)?
**A.** 12.6 ± 1.69%

**Q.** And the inhibition at 0.5 µM (HepG2 cells [3]; HepG2, 0.5 μM)?
**A.** 23.7 ± 0.59%

**Q.** What about the inhibition at 1 µM (HepG2 cells [3]; HepG2, 1 μM) of the same molecule?
**A.** 40.2 ± 2.92%
